From the NIST ThermoML archive (doi:10.1016/j.tca.2016.08.008)
Numbers after ± are expanded uncertainties.

O=P([O-])([O-])[O-].[Tb+3] [terbium orthophosphate]
molar entropy (7 K, 101.33 kPa, Metastable crystal, Vacuum adiabatic calorimetry): 0.0744 ± 0.013 J/K/mol | molar entropy (8 K, 101.33 kPa, Metastable crystal, Vacuum adiabatic calorimetry): 0.1113 ± 0.015 J/K/mol | molar entropy (9 K, 101.33 kPa, Metastable crystal, Vacuum adiabatic calorimetry): 0.1586 ± 0.018 J/K/mol | molar entropy (10 K, 101.33 kPa, Metastable crystal, Vacuum adiabatic calorimetry): 0.2174 ± 0.022 J/K/mol | molar entropy (12 K, 101.33 kPa, Metastable crystal, Vacuum adiabatic calorimetry): 0.3747 ± 0.035 J/K/mol | molar entropy (14 K, 101.33 kPa, Metastable crystal, Vacuum adiabatic calorimetry): 0.5915 ± 0.053 J/K/mol | molar entropy (16 K, 101.33 kPa, Metastable crystal, Vacuum adiabatic calorimetry): 0.8724 ± 0.076 J/K/mol | molar entropy (18 K, 101.33 kPa, Metastable crystal, Vacuum adiabatic calorimetry): 1.219 ± 0.11 J/K/mol | molar entropy (20 K, 101.33 kPa, Metastable crystal, Vacuum adiabatic calorimetry): 1.627 ± 0.14 J/K/mol | molar entropy (25 K, 101.33 kPa, Metastable crystal, Vacuum adiabatic calorimetry): 2.889 ± 0.13 J/K/mol | molar entropy (30 K, 101.33 kPa, Metastable crystal, Vacuum adiabatic calorimetry): 4.414 ± 0.2 J/K/mol | molar entropy (35 K, 101.33 kPa, Metastable crystal, Vacuum adiabatic calorimetry): 6.129 ± 0.28 J/K/mol | molar entropy (40 K, 101.33 kPa, Metastable crystal, Vacuum adiabatic calorimetry): 7.99 ± 0.36 J/K/mol | molar entropy (45 K, 101.33 kPa, Metastable crystal, Vacuum adiabatic calorimetry): 9.975 ± 0.34 J/K/mol | molar entropy (50 K, 101.33 kPa, Metastable crystal, Vacuum adiabatic calorimetry): 12.07 ± 0.4 J/K/mol | molar entropy (55 K, 101.33 kPa, Metastable crystal, Vacuum adiabatic calorimetry): 14.26 ± 0.48 J/K/mol | molar entropy (60 K, 101.33 kPa, Metastable crystal, Vacuum adiabatic calorimetry): 16.53 ± 0.55 J/K/mol | molar entropy (70 K, 101.33 kPa, Metastable crystal, Vacuum adiabatic calorimetry): 21.26 ± 0.71 J/K/mol | molar entropy (80 K, 101.33 kPa, Metastable crystal, Vacuum adiabatic calorimetry): 26.15 ± 0.87 J/K/mol | molar entropy (90 K, 101.33 kPa, Metastable crystal, Vacuum adiabatic calorimetry): 31.12 ± 1.1 J/K/mol | molar entropy (100 K, 101.33 kPa, Metastable crystal, Vacuum adiabatic calorimetry): 36.12 ± 1.2 J/K/mol | molar entropy (110 K, 101.33 kPa, Metastable crystal, Vacuum adiabatic calorimetry): 41.09 ± 1.4 J/K/mol | molar entropy (120 K, 101.33 kPa, Metastable crystal, Vacuum adiabatic calorimetry): 46.02 ± 1.5 J/K/mol | molar entropy (130 K, 101.33 kPa, Metastable crystal, Vacuum adiabatic calorimetry): 50.9 ± 1.7 J/K/mol | molar entropy (140 K, 101.33 kPa, Metastable crystal, Vacuum adiabatic calorimetry): 55.72 ± 1.9 J/K/mol | molar entropy (150 K, 101.33 kPa, Metastable crystal, Vacuum adiabatic calorimetry): 60.46 ± 2 J/K/mol | molar entropy (160 K, 101.33 kPa, Metastable crystal, Vacuum adiabatic calorimetry): 65.13 ± 2.2 J/K/mol | molar entropy (170 K, 101.33 kPa, Metastable crystal, Vacuum adiabatic calorimetry): 69.73 ± 2.3 J/K/mol | molar entropy (180 K, 101.33 kPa, Metastable crystal, Vacuum adiabatic calorimetry): 74.26 ± 2.5 J/K/mol | molar entropy (190 K, 101.33 kPa, Metastable crystal, Vacuum adiabatic calorimetry): 78.71 ± 2.6 J/K/mol | molar entropy (200 K, 101.33 kPa, Metastable crystal, Vacuum adiabatic calorimetry): 83.09 ± 2.8 J/K/mol | molar entropy (210 K, 101.33 kPa, Metastable crystal, Vacuum adiabatic calorimetry): 87.39 ± 2.9 J/K/mol | molar entropy (220 K, 101.33 kPa, Metastable crystal, Vacuum adiabatic calorimetry): 91.63 ± 3 J/K/mol | molar entropy (230 K, 101.33 kPa, Metastable crystal, Vacuum adiabatic calorimetry): 95.79 ± 3.2 J/K/mol | molar entropy (240 K, 101.33 kPa, Metastable crystal, Vacuum adiabatic calorimetry): 99.88 ± 3.3 J/K/mol | molar entropy (250 K, 101.33 kPa, Metastable crystal, Vacuum adiabatic calorimetry): 103.9 ± 3.4 J/K/mol | molar entropy (260 K, 101.33 kPa, Metastable crystal, Vacuum adiabatic calorimetry): 107.9 ± 3.6 J/K/mol | molar entropy (270 K, 101.33 kPa, Metastable crystal, Vacuum adiabatic calorimetry): 111.7 ± 3.7 J/K/mol | molar entropy (280 K, 101.33 kPa, Metastable crystal, Vacuum adiabatic calorimetry): 115.6 ± 3.8 J/K/mol | molar entropy (290 K, 101.33 kPa, Metastable crystal, Vacuum adiabatic calorimetry): 119.3 ± 4 J/K/mol | mass density (298 K, 101.33 kPa, Metastable crystal, X-ray diffraction): 6088 ± 18 kg/m3 | molar entropy (300 K, 101.33 kPa, Metastable crystal, Vacuum adiabatic calorimetry): 123 ± 4.1 J/K/mol | molar entropy (310 K, 101.33 kPa, Metastable crystal, Vacuum adiabatic calorimetry): 126.6 ± 4.2 J/K/mol | molar entropy (320 K, 101.33 kPa, Metastable crystal, Vacuum adiabatic calorimetry): 130.2 ± 4.3 J/K/mol | molar entropy (325 K, 101.33 kPa, Metastable crystal, Vacuum adiabatic calorimetry): 132 ± 4.4 J/K/mol | molar entropy (340 K, 101.33 kPa, Metastable crystal, Small sample (50 mg) DSC): 137.1 ± 11 J/K/mol | molar entropy (360 K, 101.33 kPa, Metastable crystal, Small sample (50 mg) DSC): 143.9 ± 11 J/K/mol | molar entropy (380 K, 101.33 kPa, Metastable crystal, Small sample (50 mg) DSC): 150.4 ± 12 J/K/mol | molar entropy (400 K, 101.33 kPa, Metastable crystal, Small sample (50 mg) DSC): 156.7 ± 12 J/K/mol | molar entropy (420 K, 101.33 kPa, Metastable crystal, Small sample (50 mg) DSC): 162.7 ± 13 J/K/mol | molar entropy (440 K, 101.33 kPa, Metastable crystal, Small sample (50 mg) DSC): 168.6 ± 13 J/K/mol | molar entropy (460 K, 101.33 kPa, Metastable crystal, Small sample (50 mg) DSC): 174.3 ± 14 J/K/mol | molar entropy (480 K, 101.33 kPa, Metastable crystal, Small sample (50 mg) DSC): 179.8 ± 14 J/K/mol | molar entropy (500 K, 101.33 kPa, Metastable crystal, Small sample (50 mg) DSC): 185.2 ± 14 J/K/mol | molar entropy (520 K, 101.33 kPa, Metastable crystal, Small sample (50 mg) DSC): 190.4 ± 15 J/K/mol | molar entropy (540 K, 101.33 kPa, Metastable crystal, Small sample (50 mg) DSC): 195.4 ± 15 J/K/mol | molar entropy (560 K, 101.33 kPa, Metastable crystal, Small sample (50 mg) DSC): 200.3 ± 16 J/K/mol | molar entropy (580 K, 101.33 kPa, Metastable crystal, Small sample (50 mg) DSC): 205.1 ± 16 J/K/mol | molar entropy (600 K, 101.33 kPa, Metastable crystal, Small sample (50 mg) DSC): 209.7 ± 16 J/K/mol | molar entropy (620 K, 101.33 kPa, Metastable crystal, Small sample (50 mg) DSC): 214.2 ± 17 J/K/mol | molar entropy (640 K, 101.33 kPa, Metastable crystal, Small sample (50 mg) DSC): 218.6 ± 17 J/K/mol | molar entropy (660 K, 101.33 kPa, Metastable crystal, Small sample (50 mg) DSC): 222.8 ± 17 J/K/mol | molar entropy (680 K, 101.33 kPa, Metastable crystal, Small sample (50 mg) DSC): 227 ± 18 J/K/mol | molar entropy (700 K, 101.33 kPa, Metastable crystal, Small sample (50 mg) DSC): 231 ± 18 J/K/mol | molar entropy (720 K, 101.33 kPa, Metastable crystal, Small sample (50 mg) DSC): 235 ± 18 J/K/mol | molar entropy (740 K, 101.33 kPa, Metastable crystal, Small sample (50 mg) DSC): 238.8 ± 19 J/K/mol | molar entropy (760 K, 101.33 kPa, Metastable crystal, Small sample (50 mg) DSC): 242.6 ± 19 J/K/mol | molar entropy (780 K, 101.33 kPa, Metastable crystal, Small sample (50 mg) DSC): 246.2 ± 19 J/K/mol | molar entropy (800 K, 101.33 kPa, Metastable crystal, Small sample (50 mg) DSC): 249.8 ± 20 J/K/mol | molar entropy (820 K, 101.33 kPa, Metastable crystal, Small sample (50 mg) DSC): 253.3 ± 20 J/K/mol | molar entropy (840 K, 101.33 kPa, Metastable crystal, Small sample (50 mg) DSC): 256.8 ± 20 J/K/mol | molar entropy (860 K, 101.33 kPa, Metastable crystal, Small sample (50 mg) DSC): 260.1 ± 20 J/K/mol | molar entropy (880 K, 101.33 kPa, Metastable crystal, Small sample (50 mg) DSC): 263.4 ± 20 J/K/mol | molar entropy (900 K, 101.33 kPa, Metastable crystal, Small sample (50 mg) DSC): 266.7 ± 21 J/K/mol | molar entropy (920 K, 101.33 kPa, Metastable crystal, Small sample (50 mg) DSC): 269.8 ± 21 J/K/mol | molar entropy (940 K, 101.33 kPa, Metastable crystal, Small sample (50 mg) DSC): 272.9 ± 21 J/K/mol | molar entropy (960 K, 101.33 kPa, Metastable crystal, Small sample (50 mg) DSC): 275.9 ± 22 J/K/mol | molar entropy (980 K, 101.33 kPa, Metastable crystal, Small sample (50 mg) DSC): 278.9 ± 22 J/K/mol | molar entropy (1000 K, 101.33 kPa, Metastable crystal, Small sample (50 mg) DSC): 281.8 ± 22 J/K/mol | molar entropy (1009 K, 101.33 kPa, Metastable crystal, Small sample (50 mg) DSC): 283.1 ± 22 J/K/mol | Triple point temperature (Crystal 2, DSC): 1643 ± 6 K
